Measurements published in ChEMBL document CHEMBL1121972, “Spasmolytic agents. 2. 1,2,3,4-Tetrahydro-2-naphthylamine derivatives” (1982).

Columns and labels:
Canis familiaris [1] = assay: Antispasmodic activity was measured on colonic contraction in anesthetized dog after iv administration of a dose of 0.1 mg/kg; type: functional, Canis lupus familiaris
Canis familiaris [2] = assay: Antispasmodic activity was measured on stomach contraction in anesthetized dog after iv administration of a dose of 0.1 mg/kg; type: functional, Canis lupus familiaris

**Q.** With `CCN(CCCCO)C1CCc2cc(OC)ccc2C1` (stereo not given) as the molecule, how does the Activity (Canis familiaris [1]) read?
**A.** 2.6

**Q.** What about the Activity (Canis familiaris [2]) of the same molecule?
**A.** <5

**Q.** Which Activity (Canis familiaris [1]) does the source give for `CCN(CCCCOCc1ccc(OC)c(OC)c1)C1CCc2cc(OC)ccc2C1` (stereo not given) here?
**A.** -4.3

**Q.** What about the Activity (Canis familiaris [2]) of the same molecule?
**A.** <5

**Q.** For `CCN(CCCCOC(=O)c1cc(OC)c(OC)c(OC)c1)C1CCc2cc(OC)ccc2C1.CS(=O)(=O)O` (stereo not given), which Activity (Canis familiaris [1]) is on record?
**A.** 1.1

**Q.** What about the Activity (Canis familiaris [2]) of the same molecule?
**A.** <5

**Q.** Which Activity (Canis familiaris [1]) does the source give for `CCN(CCCCCCO)C1CCc2cc(OC)ccc2C1` (stereo not given) here?
**A.** 5.2

**Q.** Which Activity (Canis familiaris [2]) does the source give for `CCCN(CCCCOC(=O)c1ccc(OC)c(OC)c1)C1CCc2cc(OC)ccc2C1.Cl` (stereo not given) here?
**A.** <5

**Q.** For `CCOc1ccc2c(c1)CCC(N(CC)CCCCOC(=O)c1ccc(OC)c(OC)c1)C2.Cl` (stereo not given), which Activity (Canis familiaris [1]) is on record?
**A.** 7.4

**Q.** And the Activity (Canis familiaris [2])?
**A.** <5

**Q.** For `COc1ccc2c(c1)CCC(N(C)CCCCOC(=O)c1ccc(OC)c(OC)c1)C2.Cl` (stereo not given), which Activity (Canis familiaris [1]) is on record?
**A.** -4.9

**Q.** And the Activity (Canis familiaris [2])?
**A.** <5

**Q.** For `CCN(CCCCOC(=O)c1ccc(OC)c(OC)c1)C1CCc2cc(OC)c(OC)cc2C1.Cl` (stereo not given), which Activity (Canis familiaris [2]) is on record?
**A.** 11.8

**Q.** With `CCN(CCCCOC(=O)c1ccc(OC)c(OC)c1)C1CCc2ccccc2C1.Cl` (stereo not given) as the molecule, how does the Activity (Canis familiaris [2]) read?
**A.** <5

**Q.** How did the Activity (Canis familiaris [2]) turn out when `CCN(CCCCOC(=O)c1ccc(OC)c(OC)c1)C1CCc2cc(OC)ccc2C1.Cl` (stereo not given) was run?
**A.** 6.6

**Q.** Which Activity (Canis familiaris [1]) does the source give for `CCN(CC(C)(C)COC(=O)c1ccc(OC)c(OC)c1)C1CCc2cc(OC)ccc2C1.Cl` (stereo not given) here?
**A.** 15.8

**Q.** What about the Activity (Canis familiaris [2]) of the same molecule?
**A.** <5

**Q.** What does the source list for `CCCOc1ccc(C(=O)OCCCCN(CC)C2CCc3cc(OC)ccc3C2)cc1.Cl` (stereo not given)?
**A.** Activity (Canis familiaris [1]): 10.2; Activity (Canis familiaris [2]): <5

**Q.** With `CCN(CCOC(=O)c1ccc(OC)c(OC)c1)C1CCc2cc(OC)ccc2C1.Cl` (stereo not given) as the molecule, how does the Activity (Canis familiaris [1]) read?
**A.** 11.4

**Q.** What about the Activity (Canis familiaris [2]) of the same molecule?
**A.** <5

**Q.** What does the source list for `CCN(CCCCOC(=O)c1c(OC)cccc1OC)C1CCc2cc(OC)ccc2C1.Cl` (stereo not given)?
**A.** Activity (Canis familiaris [1]): -8.7; Activity (Canis familiaris [2]): <5

**Q.** For `CCN(CCCCOC(=O)c1ccc(OC)c(OC)c1)C1CCc2c(cccc2OC)C1.Cl` (stereo not given), which Activity (Canis familiaris [1]) is on record?
**A.** 13.3

**Q.** And the Activity (Canis familiaris [2])?
**A.** <5

**Q.** `CCN(CCCCCCCCCCOC(=O)c1ccc(OC)c(OC)c1)C1CCc2cc(OC)ccc2C1.Cl` (stereo not given) was tested. Which Activity (Canis familiaris [1]) did it give?
**A.** 13.7

**Q.** And the Activity (Canis familiaris [2])?
**A.** <5

**Q.** What does the source list for `CCN(CCCCOC(=O)c1ccc(OC)cc1)C1CCc2cc(OC)ccc2C1.Cl` (stereo not given)?
**A.** Activity (Canis familiaris [1]): 8.1; Activity (Canis familiaris [2]): <5

**Q.** How did the Activity (Canis familiaris [1]) turn out when `CCN(CCCCOC(=O)c1ccc(OC)c(OC)c1)C1CCc2c(OC)ccc(OC)c2C1.Cl` (stereo not given) was run?
**A.** 9.2

**Q.** What about the Activity (Canis familiaris [2]) of the same molecule?
**A.** <5

**Q.** With `CCN(CCOCCOC(=O)c1ccc(OC)c(OC)c1)C1CCc2cc(OC)ccc2C1.Cl` (stereo not given) as the molecule, how does the Activity (Canis familiaris [1]) read?
**A.** 0

**Q.** And the Activity (Canis familiaris [2])?
**A.** <5

**Q.** With `COc1ccc2c(c1)CCC(N(CCCCOC(=O)c1ccc(OC)c(OC)c1)C(C)C)C2.Cl` (stereo not given) as the molecule, how does the Activity (Canis familiaris [1]) read?
**A.** 19.6

**Q.** And the Activity (Canis familiaris [2])?
**A.** <5

**Q.** Which Activity (Canis familiaris [1]) does the source give for `CCN(CCCCOC(=O)c1ccc2c(c1)OCO2)C1CCc2cc(OC)ccc2C1.Cl` (stereo not given) here?
**A.** 1.3

**Q.** What about the Activity (Canis familiaris [2]) of the same molecule?
**A.** <5

**Q.** How did the Activity (Canis familiaris [2]) turn out when `CCN(CCCCCCOC(=O)c1ccc(OC)c(OC)c1)C1CCc2ccccc2C1.Cl` (stereo not given) was run?
**A.** 31.3

**Q.** With `CCN(CCCCCCOC(=O)c1ccc(OC)c(OC)c1)C1CCc2cc(OC)ccc2C1.Cl` (stereo not given) as the molecule, how does the Activity (Canis familiaris [2]) read?
**A.** <5

**Q.** Which Activity (Canis familiaris [1]) does the source give for `CCOc1ccc(C(=O)OCCCCN(CC)C2CCc3cc(OC)ccc3C2)cc1.Cl` (stereo not given) here?
**A.** -2.5

**Q.** What about the Activity (Canis familiaris [2]) of the same molecule?
**A.** <5

**Q.** What does the source list for `CCCOc1ccc2c(c1)CCC(N(CC)CCCCOC(=O)c1ccc(OC)c(OC)c1)C2.Cl` (stereo not given)?
**A.** Activity (Canis familiaris [1]): 1.4; Activity (Canis familiaris [2]): <5

**Q.** `CCN(CCCCOC(=O)c1ccccc1)C1CCc2cc(OC)ccc2C1.Cl` (stereo not given) was tested. Which Activity (Canis familiaris [1]) did it give?
**A.** -2.6

**Q.** And the Activity (Canis familiaris [2])?
**A.** <5

**Q.** How did the Activity (Canis familiaris [1]) turn out when `CCOc1cc(C(=O)OCCCCN(CC)C2CCc3cc(OC)ccc3C2)cc(OCC)c1OCC.Cl` (stereo not given) was run?
**A.** -6.8

**Q.** What about the Activity (Canis familiaris [2]) of the same molecule?
**A.** <5

**Q.** How did the Activity (Canis familiaris [2]) turn out when `CCN(CCCCOC(=O)c1ccc(OC)c(OC)c1)C1CCc2cccc(OC)c2C1.Cl` (stereo not given) was run?
**A.** 21.3

**Q.** `CCN(CCCCCCOC(=O)c1ccc(OC)c(OC)c1)C1CCc2cc(OC)c(OC)cc2C1.Cl` (stereo not given) was tested. Which Activity (Canis familiaris [2]) did it give?
**A.** 64.5

**Q.** Which results are given for `CCN(CCCCOC(=O)c1ccc(OC)c(OC)c1)C1CCc2cc3c(cc2C1)OCO3.Cl` (stereo not given)?
**A.** Activity (Canis familiaris [1]): 13.4; Activity (Canis familiaris [2]): <5

**Q.** With `CCN(CCCCOC(=O)c1ccc(OC)c(OC)c1)C1CCc2ccc(OC)cc2C1.Cl` (stereo not given) as the molecule, how does the Activity (Canis familiaris [2]) read?
**A.** 18.1

**Q.** For `CCN(CCCOC(=O)c1ccc(OC)c(OC)c1)C1CCc2cc(OC)ccc2C1.Cl` (stereo not given), which Activity (Canis familiaris [1]) is on record?
**A.** -1

**Q.** And the Activity (Canis familiaris [2])?
**A.** <5

**Q.** With `CCN(CCCCOC(=O)c1ccc(OC)c(OC)c1)C(C)Cc1ccc(OC)cc1` (stereo not given) [MEBEVERINE] as the molecule, how does the Activity (Canis familiaris [2]) read?
**A.** 2.6
